Experimental findings from patent US8349897B2, “Biphenyloxyacetic acid derivatives for the treatment of respiratory disease” (Astrazeneca AB, priority 2005, dated 2013) are described below.

This assay deals with T1, rhCRTh2 (Homo sapiens, UniProt Q9Y5Y4).
T1 construct: expressed in transfected cells; host or cells: HEK cells (membrane preparation)
T1 sequence (Q9Y5Y4 1-395): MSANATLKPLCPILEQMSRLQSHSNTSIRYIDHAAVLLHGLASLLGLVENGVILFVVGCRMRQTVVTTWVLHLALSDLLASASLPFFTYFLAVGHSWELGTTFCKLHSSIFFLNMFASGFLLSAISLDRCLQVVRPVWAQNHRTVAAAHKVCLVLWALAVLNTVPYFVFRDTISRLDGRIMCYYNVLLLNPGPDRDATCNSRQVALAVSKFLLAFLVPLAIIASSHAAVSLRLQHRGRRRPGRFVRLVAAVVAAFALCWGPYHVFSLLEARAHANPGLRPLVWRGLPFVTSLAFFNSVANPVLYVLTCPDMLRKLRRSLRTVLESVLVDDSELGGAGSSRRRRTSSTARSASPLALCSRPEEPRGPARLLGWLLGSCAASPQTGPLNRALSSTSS
The experiment in a line: Ligand binding assay ([3H]PGD2 SPA, HEK cell membranes). As to conditions: [3H]PGD2 displacement, membranes of HEK cells expressing rhCRTh2/Gα16, SPA beads, 2 hours room temperature; read-out: pIC50 value (converted). The method, then: [^3H]PGD2 was purchased from Perkin Elmer Life Sciences with a specific activity of 100-210 Ci/mmol. All other chemicals were of analytical grade.
HEK cells expressing rhCRTh2/Gα16 were routinely maintained in DMEM containing 10% Foetal Bovine Serum (HyClone), 1 mg/ml geneticin, 2 mM L-glutamine and 1% non-essential amino acids. For the preparation of membranes, the adherent transfected HEKcells were grown to confluence in two layer tissue culture factories (Fisher, catalogue number TKT-170-070E). Maximal levels of receptor expression were induced by addition of […] sodium butyrate for the last 18 hours of culture. The adherent cells were washed once with phosphate buffered saline (PBS, 50 ml per cell factory) and detached by the addition of 50 ml per cell factory of ice-cold membrane homogenisation buffer [20 mM HEPES (pH 7.4), 0.1 mM dithiothreitol, 1 mM EDTA, 0.1 mM phenyl methyl sulphonyl fluoride and 100 μg/ml bacitracin]. […] The final pellet was re-suspended in 4 ml of membrane homogenisation buffer per cell factory used and the protein content determined. […]
All assays were performed in Corning clear bottomed, white 96-well NBS plates (Fisher). […] (The optimum coating concentrations were determined for each batch of membranes) The beads were pelleted by centrifugation (800×g for 7 minutes at 4° C.), washed once with assay buffer (50 mM HEPES pH 7.4 containing 5 mM magnesium chloride) and finally re-suspended in assay buffer at a bead concentration of 10 mg/ml.
Each assay contained 20 μl of 6.25 nM [^3H]PGD2, 20 μl membrane saturated SPA beads both in assay buffer and 10 μl of compound solution or 13,14-dihydro-15-keto prostaglandin D2 (DK-PGD2, for determination of non-specific binding, Cayman chemical company). […] The assay plate was incubated at room temperature for 2 hours and counted on a Wallac Microbeta liquid scintillation counter (1 minute per well).

As for `C[C@H](Oc1ccc(F)cc1-c1ccc(S(=O)(=O)c2ccccc2)cc1Cl)C(=O)O` [Example 15, (2S)-2-{[2′-chloro-5-fluoro-4′-(phenylsulfonyl)biphenyl-2-yl]oxy}propanoic acid], the IC50 was 1.58 nM.

As for `C[C@H](Oc1ccc(Cl)cc1-c1ccc(S(=O)(=O)c2ccc(F)cc2)cc1)C(=O)O` [Example 8, (2S)-2-({5-chloro-4′-[(4-fluorophenyl)sulfonyl]biphenyl-2-yl}oxy)propanoic acid], the IC50 was 1.58 nM.

`O=C(O)COc1ccc(F)cc1-c1ccc(S(=O)(=O)c2ccccc2)c(C(F)(F)F)c1` [Example 7, {[5-fluoro-4′-(phenylsulfonyl)-3′-(trifluoromethyl)biphenyl-2-yl]oxy}acetic acid]: the IC50 is 3.16 nM.
